Measured values reported in patent US11278528B2, “Activator of peroxisome proliferator-activated receptor” (Nippon Chemiphar Co., Ltd., priority 2017, dated 2022).

Legend:
[1] = target: T1, PPARα (Homo sapiens, UniProt Q07869); test: Measurement of agonist activity against PPARα (EnBio RCAS for PPARα kit, PPARA-CBP); format: biochemical; conditions: evaluation concentration 10 μM, ratio to maximal response well (GW7647 0.5 μM); for activation at 10 µM: read-out: Binding ratio (%) @ 10 μM
T1 construct: purchased Fujikura Kasei Co., Ltd. PPARA-CBP
T1 sequence (Q07869 1-468): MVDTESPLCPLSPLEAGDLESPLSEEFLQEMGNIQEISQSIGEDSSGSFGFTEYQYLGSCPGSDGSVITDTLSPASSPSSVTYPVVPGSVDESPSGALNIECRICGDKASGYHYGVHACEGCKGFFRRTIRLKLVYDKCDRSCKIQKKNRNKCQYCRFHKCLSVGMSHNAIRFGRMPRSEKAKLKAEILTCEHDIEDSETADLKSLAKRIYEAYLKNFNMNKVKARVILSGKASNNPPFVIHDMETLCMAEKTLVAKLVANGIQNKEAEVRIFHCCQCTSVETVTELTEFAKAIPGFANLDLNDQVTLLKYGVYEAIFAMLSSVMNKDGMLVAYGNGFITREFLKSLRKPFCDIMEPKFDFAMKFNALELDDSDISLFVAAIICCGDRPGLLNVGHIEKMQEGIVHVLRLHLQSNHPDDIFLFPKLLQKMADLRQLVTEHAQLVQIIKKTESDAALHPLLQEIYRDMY
Protocol: (1) Measurement of Agonist Activity against PPARα
For the measurement of agonist activity against PPARα, the absorbance was measured according to the kit protocol using EnBio RCAS for PPARα kit (PPARA-CBP, Fujikura Kasei Co., Ltd.). A sample was dissolved in dimethylsulfoxide and added to a 96-well plate so as to have an evaluation concentration of 10 μM. GW7647 was added to a maximal response well so as to have a concentration of 0.5 μM. Dimethylsulfoxide was added to background wells. After subtracting the absorbance of the background well from the absorbance of each sample addition well, the ratio of each sample addition well to the maximal response well was calculated to evaluate the agonist activity (Binding ratio, %) against PPARα. Note that the sample addition wells and the background wells were duplicated, and the maximal response well was quadruplicated. As a positive control, 10 μM of a known PPARα agonist; Fenofibric acid (Tokyo Chemical Industry Co., Ltd.) was used.

[2] = tested on: NAFLD model rats fed with a methionine/choline-deficient (MCD) diet; test: Non-alcoholic fatty liver disease (NAFLD) model rats induced by methionine/choline-deficient diet; format: in vivo, Wistar rats; conditions: for Plasma ALT as an indicator of liver damage: versus Vehicle group (FIG. 1A); for Liver TG level as an indicator of fatty liver: versus Vehicle group (FIG. 1B)
Excerpt: (1) Evaluation Using Non-Alcoholic Fatty Liver Disease (NAFLD) Model Rats Induced by Methionine/Choline-Deficient Diet
As a NAFLD model, rats fed with a methionine/choline-deficient (MCD) diet were used to perform experiments. The MCD diet-fed model is widely used as a model for NAFLD/NASH.
Wistar rats (male, 8 weeks old, Charles River Laboratories Japan, Inc.) were fed with an MCD diet (A02082002B, Research Diets, Inc.) for 5 weeks. From the time of feeding the above diet for 1 week, the rats were divided into a Vehicle group, a COMPOUND 2 (50 mg/kg) group, and a Fenofibrate (100 mg/kg) group so that there was no difference in body weight between the groups (n=4 in each of the groups). The Normal group was fed with an MCS diet as a control diet for the MCD diet (A02082003B, Research Diets, Inc.) for the same period. The administration volume was 10 mL/kg, a 1% methylcellulose solution was repeatedly orally administered to the Vehicle group and the Normal group, and a COMPOUND 2 solution and a Fenofibrate solution were repeatedly orally administered to the COMPOUND 2 group and the Fenofibrate group, respectively, once a day for 4 weeks.
The day after the end of the final administration, blood was collected from the posterior vena cava under non-fasting conditions and isoflurane inhalation anesthesia, and plasma was collected. Further, the liver was removed and a part thereof was cryopreserved. Plasma ALT was measured by the JSCC standardized method. Triglyceride (TG) in the liver was extracted from the liver with a chloroform/methanol mixed solution (2:1, v/v), evaporated to dryness, and dissolved in 2-propanol, and then the amount was measured using Triglyceride E Test Wako. The results were each expressed as a mean value±standard deviation. Significant difference was tested between the Normal group and the Vehicle group using the Welch's t test (unpaired) (#: p<0.05 and ###: p<0.001), and significant difference was tested among the Vehicle group and the test substance administration groups using the Dunnett's test (*: p<0.05, **: p<0.01, and ***: p<0.001).

[3] = tested on: ZDF rats with low urinary pH; test: Low urinary pH improving effect in diabetic model Zucker Diabetic Fatty (ZDF) rats; format: in vivo, ZDF (Lepr^fa/Lepr^fa) rats; conditions: 24 h urine, versus Vehicle group (FIG. 2)
Protocol: (1) Evaluation Using Diabetic Models, Zucker Diabetic Fatty (ZDF) Rats
In this example, the low urinary pH improving effect of COMPOUND 2 was evaluated using diabetic model animals; ZDF rats with low urinary pH. Verinurad; a known URAT1 inhibitor was evaluated as a comparative control compound (the PPARα activating effect of Verinurad was evaluated by the method described in Test Example 1, and as a result, the binding ratio at an evaluation concentration of 10 μM was 3.80%, and no effect was confirmed).
ZDF (Lepr^fa/Lepr^fa) rats (male, 7 weeks old at the start of administration, Charles River Laboratories Japan, Inc.) were divided into a Vehicle group, a COMPOUND 2 (25 mg/kg) group, a COMPOUND 2 (50 mg/kg) group, and a Verinurad (50 mg/kg) group so that there was no difference in body weight between the groups (n=5 in each of the groups). As a Lean group, ZDF (Lean) rats, i.e., control animals of ZDF (Lepr^fa/Lepr^fa) rats, were used (n=5). The administration volume was 10 mL/kg, a 1% methylcellulose solution was repeatedly orally administered to the Vehicle group and the Lean group, and a COMPOUND 2 solutions and a Verinurad solution were repeatedly orally administered to the COMPOUND 2 groups and the Verinurad group, respectively, once a day for 15 days.
During the administration period, the pH of a urine sample obtained by urine collection was measured using a compact pH meter (B-712, Horiba, Ltd.). Urine collection was performed 6 days before the start of administration (pre), on the 1st day, 7th day and 14th day of administration, and urine was collected in a metabolic cage for 24 hours. The results were each expressed as a mean value±standard deviation. At each time point, significant difference was tested between the Lean group and the Vehicle group using the Student's t test (unpaired) (###: p<0.001). After one-way analysis of variance, significant difference was tested among the Vehicle group and the test substance administration groups using the Dunnett's test (*: p<0.05, **: p<0.01, and ***: p<0.001).

[4] = 100 mg/kg oral once a day for 4 weeks
[5] = 50 mg/kg oral once a day for 15 days
[6] = 50 mg/kg oral once a day for 4 weeks

Compound	activation at 10 µM [1]	other results
CC(C)(Sc1ccc2cnsc2c1-c1ccc(Cl)cc1)C(=O)O [COMPOUND 12, 2-[[7-(4-chlorophenyl)benzo[d]isothiazol-6-yl]thio]-2-methylpropanoic acid]	92.6%	
CC(C)(Oc1cc2ncsc2cc1-c1ccc(C#N)cc1)C(=O)O [COMPOUND 3, 2-[[6-(4-cyanophenyl)benzo[d]thiazol-5-yl]oxy]-2-methylpropanoic acid]	16%	
N#Cc1ccc(-c2c(SC3(C(=O)O)CCCC3)ccc3cnsc23)cc1 [COMPOUND 11, 1-[[7-(4-cyanophenyl)benzo[d]isothiazol-6-yl]thio]cyclopentan-1-carboxylic acid]	21.7%	
fenofibrate [reference compound]		Plasma ALT as an indicator of liver damage [2, 4]: significantly lower values than the Vehicle group; Liver TG level as an indicator of fatty liver [2, 4]: significantly lower
Cc1cc(-c2c(SC(C)(C)C(=O)O)ccc3cnsc23)ccc1C#N [COMPOUND 13, 2-[[7-(4-cyano-3-methylphenyl)benzo[d]isothiazol-6-yl]thio]-2-methylpropanoic acid]	20.8%	
CC(C)(Sc1ccncc1-c1ccc(C#N)c2ccccc12)C(=O)O [Verinurad, reference compound]	3.8%	Urine pH [3, 5]: no low urinary pH improving effect was observed throughout the administration period
CCC(CC)(Sc1ccc2cnsc2c1-c1ccc(C#N)cc1)C(=O)O [COMPOUND 15, 2-[[7-(4-cyanophenyl)benzo[d]isothiazol-6-yl]thio]-2-ethylbutanoic acid]	59%	
CC(C)(Oc1ccc(C(=O)c2ccc(Cl)cc2)cc1)C(=O)O [Fenofibric acid, 2-[4-(4-chlorobenzoyl)phenoxy]-2-methylpropionic acid, reference compound]		Binding ratio (%) @ 10 μM [1]: 50.46%
CC(C)(Sc1ccc2cnsc2c1-c1ccc(C#N)cc1)C(=O)O [COMPOUND 2, 2-[[7-(4-cyanophenyl)benzo[d]isothiazol-6-yl]thio]-2-methylpropanoic acid]	69.8%	Plasma ALT as an indicator of liver damage [2, 6]: significantly lower values than the Vehicle group; Liver TG level as an indicator of fatty liver [2, 6]: significantly lower; Urine pH ([3]; 25 mg/kg oral once a day for 15 days): significantly increased from the 7th day of administration; Urine pH [3, 5]: significantly increased from the 1st day of administration
Cc1nsc2c(-c3ccc(C#N)cc3)c(SC(C)(C)C(=O)O)ccc12 [COMPOUND 5, 2-[[7-(4-cyanophenyl)-3-methylbenzo[d]isothiazol-6-yl]thio]-2-methyl propanoic acid]	41.8%	
CC(C)(Sc1ccc2ccccc2c1-c1ccc(C#N)cc1)C(=O)O [COMPOUND 4, 2-[[1-(4-cyanophenyl)naphthalen-2-yl]thio]-2-methylpropanoic acid]	52.6%	
CC(C)(Sc1cc(F)c2cnsc2c1-c1ccc(C#N)cc1)C(=O)O [COMPOUND 10, 2-[[7-(4-cyanophenyl)-4-fluorobenzo[d]isothiazol-6-yl]thio]-2-methylpropanoic acid]	71.3%	
CC(C)(Sc1ccc2nc(C(F)(F)F)sc2c1-c1ccc(C#N)cc1)C(=O)O [COMPOUND 6, 2-[[7-(4-cyanophenyl)-2-(trifluoromethyl)benzo[d]thiazol-6-yl]thio]-2-methylpropanoic acid]	24.7%	
CC(C)(C)C(Sc1ccc2cnsc2c1-c1ccc(C#N)cc1)C(=O)O (stereo not shown) [COMPOUND 16, 2-[[7-(4-cyanophenyl)benzo[d]isothiazol-6-yl]thio]-3,3-dimethylbutanoic acid]	11.8%	

Continued, in another order:

activation at 10 µM [1]	Compound	other results
47%	Cc1nc2ccc(SC(C)(C)C(=O)O)c(-c3ccc(C#N)cc3)c2s1 [COMPOUND 7, 2-[[7-(4-cyanophenyl)-2-methylbenzo[d]thiazol-6-yl]thio]-2-methylpropanoic acid]	
26.5%	Cc1nsc2c(-c3ccc(C#N)cc3)c(SC3(C(=O)O)CCC3)ccc12 [COMPOUND 14, 1-[[7-(4-cyanophenyl)-3-methylbenzo[d]isothiazol-6-yl]thio]cyclobutan-1-carboxylic acid]	
87%	CC(C)(Sc1ccc2cnsc2c1-c1ccc(C(F)(F)F)cc1)C(=O)O [COMPOUND 9, 2-methyl-2-[[7-[4-(tri-fluoromethyl)phenyl]benzo[d]iso-thiazol-6-yl]thio]propanoic acid]	
49.2%	CC(C)(Sc1ccc2ncsc2c1-c1ccc(C#N)cc1)C(=O)O [COMPOUND 1, 2-[[7-(4-cyanophenyl)benzo[d]thiazol-6-yl]thio]-2-methylpropanoic acid]	
29.9%	N#Cc1ccc(-c2c(SC3(C(=O)O)CCC3)ccc3cnsc23)cc1 [COMPOUND 8, 1-[[7-(4-cyanophenyl)benzo[d]isothiazol-6-yl]thio]cyclobutan-1-carboxylic acid]	
